Laboratory results taken from publication PMC10303271, “Synthesis and Receptor Binding Studies of α5 GABAAR Selective Novel Imidazodiazepines Targeted for Psychiatric and Cognitive Disorders” (Molecules, 2023).

Legend:
[1] = target: T1, 5-HT2B (Homo sapiens, UniProt P41595); assay: PDSP primary binding 5-HT2B; settings: 1.5 h; primary binding, 10,000 nM; last figure of the line = mean of the 4 before it; read-out: 5-HT2B, PDSP raw data, mean
T1 construct: purchased NIMH Psychoactive Drug Screening Program (PDSP)
T1 sequence (P41595 whole entry): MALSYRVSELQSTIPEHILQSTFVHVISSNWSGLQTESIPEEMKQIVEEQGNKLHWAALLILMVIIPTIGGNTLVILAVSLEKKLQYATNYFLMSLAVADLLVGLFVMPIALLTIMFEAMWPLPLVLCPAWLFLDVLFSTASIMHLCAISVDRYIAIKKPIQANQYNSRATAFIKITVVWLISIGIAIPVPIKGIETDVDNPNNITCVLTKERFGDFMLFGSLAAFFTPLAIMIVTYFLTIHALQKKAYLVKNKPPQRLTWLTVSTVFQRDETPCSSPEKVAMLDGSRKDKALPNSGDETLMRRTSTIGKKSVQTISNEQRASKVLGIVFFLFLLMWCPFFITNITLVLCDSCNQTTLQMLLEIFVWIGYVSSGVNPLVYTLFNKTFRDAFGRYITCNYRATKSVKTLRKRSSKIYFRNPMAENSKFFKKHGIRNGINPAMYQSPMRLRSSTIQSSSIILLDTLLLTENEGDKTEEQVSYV
Protocol: (§1) To determine if any off-target receptor-binding effects are present, all the novel ligands were sent to the National Institute of Mental Health (NIMH), Psychoactive Drug Screening Program (PDSP). The ligands were screened over a panel of 47 receptors, ion channels, and transporters to determine any other possible interactions with […]. The hERG-binding was also determined. […] No binding of the test compounds to calcium channels was observed. […] It is necessary to screen the compounds for hERG-binding during the early process of drug discovery. The unintentional binding of many drugs to hERG can cause blockade of hERG K+ channels in the heart, which can cause many side effects including cardiac arrhythmias and sudden death. […] All of the α5 imidazodiazepines were tested for hERG-binding.
(§2) The NIMH PDSP assay protocol book [https://kidbdev.med.unc.edu/databases/PDSP%20Protocols%20II%202013-03-28.pdf accessed on 23 April 2023]. describes the protocols for primary and secondary radio-ligand binding assays. These assays were carried out in a final volume of 125 µL per well in the appropriate binding buffer.
(§3) The binding of a ligand to a receptor, ion channel, or transporter was determined in the […] of 10 µM of the appropriate reference compound. […] Plates were incubated in the dark for 90 min at rt, and the reactions were stopped by vacuum filtration onto 0.3% polyethyleneimine (PEI) soaked 96-well filter mats using a 96-well Filtermateharvester. This was followed by three washes with cold PBS buffer. Radioactivity was then counted on a Microbeta counter. Nonlinear regression was used to analyze the data with N = 6 replicates.

[2] = target: T2, Alpha1A (Homo sapiens, UniProt P35348); assay: PDSP primary binding Alpha1A; settings: 1.5 h; primary binding, 10,000 nM; last figure of the line = mean of the 4 before it; read-out: Alpha1A, PDSP raw data, mean
T2 construct: purchased NIMH Psychoactive Drug Screening Program (PDSP)
T2 sequence (P35348 1-466): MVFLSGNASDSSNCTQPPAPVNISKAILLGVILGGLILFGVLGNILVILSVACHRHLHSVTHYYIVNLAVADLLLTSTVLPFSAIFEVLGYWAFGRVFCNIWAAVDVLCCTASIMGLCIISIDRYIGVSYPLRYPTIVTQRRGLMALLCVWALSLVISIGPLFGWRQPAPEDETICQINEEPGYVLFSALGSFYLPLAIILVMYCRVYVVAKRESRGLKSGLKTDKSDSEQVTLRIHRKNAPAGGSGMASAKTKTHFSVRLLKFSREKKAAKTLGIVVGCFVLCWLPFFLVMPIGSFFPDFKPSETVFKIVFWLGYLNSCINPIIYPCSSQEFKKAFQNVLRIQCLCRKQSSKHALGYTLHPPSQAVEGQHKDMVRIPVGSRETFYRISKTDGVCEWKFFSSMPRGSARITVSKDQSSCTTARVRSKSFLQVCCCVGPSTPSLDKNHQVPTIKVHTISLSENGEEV
Protocol: as §1, §2, §3

[3] = target: T3, D3 (Homo sapiens, UniProt P35462); assay: PDSP primary binding D3; settings: 1.5 h; primary binding, 10,000 nM; last figure of the line = mean of the 4 before it; read-out: D3, PDSP raw data, mean
T3 construct: purchased NIMH Psychoactive Drug Screening Program (PDSP)
T3 sequence (P35462 whole entry): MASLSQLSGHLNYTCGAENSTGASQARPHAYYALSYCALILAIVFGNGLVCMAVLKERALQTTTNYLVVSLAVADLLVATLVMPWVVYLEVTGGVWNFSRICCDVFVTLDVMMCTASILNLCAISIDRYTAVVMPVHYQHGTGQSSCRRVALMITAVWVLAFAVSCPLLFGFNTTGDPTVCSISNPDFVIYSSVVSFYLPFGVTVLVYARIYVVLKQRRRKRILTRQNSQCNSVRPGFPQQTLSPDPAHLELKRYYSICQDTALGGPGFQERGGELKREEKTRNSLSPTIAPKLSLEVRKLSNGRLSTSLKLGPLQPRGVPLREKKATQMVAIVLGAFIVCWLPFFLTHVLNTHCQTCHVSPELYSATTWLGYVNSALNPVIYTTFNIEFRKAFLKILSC
Protocol: as §1, §2, §3

[4] = target: T4, M1 (Homo sapiens, UniProt P11229); assay: PDSP primary binding M1; settings: primary binding, 10,000 nM; last figure of the line = mean of the 4 before it; read-out: M1, PDSP raw data, mean
T4 construct: purchased NIMH Psychoactive Drug Screening Program (PDSP)
T4 sequence (P11229 1-460): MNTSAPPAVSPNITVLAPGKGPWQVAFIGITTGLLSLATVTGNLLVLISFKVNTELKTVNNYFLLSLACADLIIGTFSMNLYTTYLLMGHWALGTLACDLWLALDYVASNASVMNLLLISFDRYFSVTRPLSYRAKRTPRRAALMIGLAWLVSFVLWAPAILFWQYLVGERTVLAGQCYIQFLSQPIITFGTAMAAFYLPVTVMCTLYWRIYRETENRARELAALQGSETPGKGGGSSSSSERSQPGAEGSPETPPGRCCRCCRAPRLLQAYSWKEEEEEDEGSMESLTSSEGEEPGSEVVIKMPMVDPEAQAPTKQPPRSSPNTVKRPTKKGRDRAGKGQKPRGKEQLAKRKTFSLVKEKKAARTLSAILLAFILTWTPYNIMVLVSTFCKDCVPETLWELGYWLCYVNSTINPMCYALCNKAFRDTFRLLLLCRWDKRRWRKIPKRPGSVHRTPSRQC
Protocol: as §1, §2, §3

[5] = target: T5, M5 (Homo sapiens, UniProt P08912); assay: PDSP primary binding M5; settings: primary binding, 10,000 nM; last figure of the line = mean of the 4 before it; read-out: M5, PDSP raw data, mean
T5 construct: purchased NIMH Psychoactive Drug Screening Program (PDSP)
T5 sequence (P08912 1-532): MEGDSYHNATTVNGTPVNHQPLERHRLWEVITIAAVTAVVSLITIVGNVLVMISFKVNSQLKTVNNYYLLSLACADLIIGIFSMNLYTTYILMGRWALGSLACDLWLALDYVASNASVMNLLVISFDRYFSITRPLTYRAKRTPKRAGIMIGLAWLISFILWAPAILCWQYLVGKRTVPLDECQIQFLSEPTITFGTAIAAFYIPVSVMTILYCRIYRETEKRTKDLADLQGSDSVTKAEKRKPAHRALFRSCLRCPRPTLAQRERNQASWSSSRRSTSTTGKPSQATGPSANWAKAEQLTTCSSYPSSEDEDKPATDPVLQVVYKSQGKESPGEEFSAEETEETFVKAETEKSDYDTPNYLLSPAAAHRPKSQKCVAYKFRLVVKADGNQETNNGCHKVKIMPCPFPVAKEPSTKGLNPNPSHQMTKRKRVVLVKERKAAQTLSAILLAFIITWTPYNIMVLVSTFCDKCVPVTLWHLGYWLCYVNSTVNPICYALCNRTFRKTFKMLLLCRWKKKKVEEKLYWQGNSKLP
Protocol: as §1, §2, §3

[6] = target: T6, M3D (Homo sapiens, UniProt P20309, A239G/Y149C); assay: PDSP primary binding M3D; settings: primary binding, 10,000 nM; last figure of the line = mean of the 4 before it; read-out: M3D, PDSP raw data, mean
T6 construct: purchased NIMH Psychoactive Drug Screening Program (PDSP)
T6 sequence (P20309 whole entry Y149C/A239G): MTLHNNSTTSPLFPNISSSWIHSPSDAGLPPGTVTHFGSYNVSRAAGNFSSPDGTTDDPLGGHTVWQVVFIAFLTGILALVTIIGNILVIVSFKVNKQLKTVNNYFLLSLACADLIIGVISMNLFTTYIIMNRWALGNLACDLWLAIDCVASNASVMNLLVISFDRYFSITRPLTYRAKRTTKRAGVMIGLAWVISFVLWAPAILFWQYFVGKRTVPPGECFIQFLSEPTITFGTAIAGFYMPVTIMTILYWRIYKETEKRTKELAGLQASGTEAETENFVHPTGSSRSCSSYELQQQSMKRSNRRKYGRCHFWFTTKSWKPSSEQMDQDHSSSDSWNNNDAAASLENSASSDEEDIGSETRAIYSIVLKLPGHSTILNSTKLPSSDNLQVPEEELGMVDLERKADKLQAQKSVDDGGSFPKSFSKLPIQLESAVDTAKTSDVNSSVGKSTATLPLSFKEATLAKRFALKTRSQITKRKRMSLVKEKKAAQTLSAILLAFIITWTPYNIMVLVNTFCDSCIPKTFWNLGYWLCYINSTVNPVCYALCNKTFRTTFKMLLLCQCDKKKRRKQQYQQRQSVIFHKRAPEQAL
Protocol: as §1, §2, §3

## C#Cc1ccc2c(c1)C(c1ccccc1F)=N[C@H](C)c1c(C(=S)N(C)C)ncn1-2 [Compound 33, (R)-8-Ethynyl-6-(2′-fluorophenyl)-N,N,4-trimethyl-4H-benzo[f]imidazo[1,5-a][1,4]diazepine-3-carbothioamide]
[1]
  inhibition at 10 µM: 26.5%
[2]
  inhibition at 10 µM: -4.47%
[3]
  inhibition at 10 µM: -3.57%
[4]
  inhibition at 10 µM: -1.6%
[5]
  inhibition at 10 µM: -0.76%
[6]
  inhibition at 10 µM: 4.84%

## C#Cc1ccc2c(c1)C(c1ccccc1Cl)=N[C@H](C)c1c(C(=O)NC)ncn1-2 [Compound 21, (R)-6-(2′-Chlorophenyl)-8-ethynyl-N,4-dimethyl-4H-benzo[f]imidazo[1,5-a][1,4]diazepine-3-carboxamide]
[1]
  inhibition at 10 µM: -5.07%
[2]
  inhibition at 10 µM: -5.44%
[3]
  inhibition at 10 µM: 6.19%
[4]
  inhibition at 10 µM: -8.29%
[5]
  inhibition at 10 µM: -8.03%
[6]
  inhibition at 10 µM: 0.48%

## CCc1noc(-c2ncn3c2[C@@H](C)N=C(c2ccccc2F)c2cc(C4CC4)ccc2-3)n1 [Compound 46, (R)-5-(8-Cyclopropyl-6-(2′-fluorophenyl)-4-methyl-4H-benzo[f]imidazo[1,5-a][1,4]diazepin-3-yl)-3-ethyl-1,2,4-oxadiazole]
[1]
  inhibition at 10 µM: 25.1%
[2]
  inhibition at 10 µM: 31.8%
[3]
  inhibition at 10 µM: 27.8%
[4]
  inhibition at 10 µM: 0.86%
[5]
  inhibition at 10 µM: 5.69%
[6]
  inhibition at 10 µM: 9.97%

## CC(C)c1noc(-c2ncn3c2[C@@H](C)N=C(c2ccccc2F)c2cc(Cl)ccc2-3)n1 [Compound 37, (R)-5-(8-Chloro-6-(2′-fluorophenyl)-4-methyl-4H-benzo[f]imidazo[1,5-a][1,4]diazepin-3-yl)-3-isopropyl-1,2,4-oxadiazole]
[1]
  inhibition at 10 µM: 8.56%
[2]
  inhibition at 10 µM: -8.38%
[3]
  inhibition at 10 µM: -0.7%
[4]
  inhibition at 10 µM: -0.48%
[5]
  inhibition at 10 µM: -4.88%
[6]
  inhibition at 10 µM: -23.4%

## CCc1noc(-c2ncn3c2[C@@H](C)N=C(c2ccccc2F)c2cc(Cl)ccc2-3)n1 [Compound 36, (R)-5-(8-Chloro-6-(2′-fluorophenyl)-4-methyl-4H-benzo[f]imidazo[1,5-a][1,4]diazepin-3-yl)-3-ethyl-1,2,4-oxadiazole]
[1]
  inhibition at 10 µM: 3.47%
[2]
  inhibition at 10 µM: -0.34%
[3]
  inhibition at 10 µM: 4.97%
[4]
  inhibition at 10 µM: -0.27%
[5]
  inhibition at 10 µM: -10.7%
[6]
  inhibition at 10 µM: -2.01%

## C[C@H]1N=C(c2ccccc2F)c2cc(-c3ccccc3)ccc2-n2cnc(C(=O)N(C)C)c21 [Compound 5, (R)-6-(2′-Fluorophenyl)-N,N,4-trimethyl-8-phenyl-4H-benzo[f]imidazo[1,5-a][1,4]diazepine-3-carboxamide]
[1]
  inhibition at 10 µM: 26.5%
[2]
  inhibition at 10 µM: -4.47%
[3]
  inhibition at 10 µM: -3.57%
[4]
  inhibition at 10 µM: -1.6%
[5]
  inhibition at 10 µM: -0.76%
[6]
  inhibition at 10 µM: 4.84%

## C#Cc1ccc2c(c1)C(c1ccccn1)=N[C@@H](C)c1c(C(=O)N(C)C)ncn1-2 [Compound 31, (S)-8-Ethynyl-N,N,4-trimethyl-6-(pyridin-2′-yl)-4H-benzo[f]imidazo[1,5-a][1,4]diazepine-3-carboxamide]
[1]
  inhibition at 10 µM: -3.38%
[2]
  inhibition at 10 µM: -10.5%
[3]
  inhibition at 10 µM: 1.06%
[4]
  inhibition at 10 µM: -20%
[5]
  inhibition at 10 µM: -11.8%
[6]
  inhibition at 10 µM: 6.59%

## C#Cc1ccc2c(c1)C(c1ccccn1)=N[C@@H](C)c1c(C(=O)NC)ncn1-2 [Compound 23, (S)-8-Ethynyl-N,4-dimethyl-6-(pyridin-2′-yl)-4H-benzo[f]imidazo[1,5-a][1,4]diazepine-3-carboxamide]
[1]
  inhibition at 10 µM: -3.33%
[2]
  inhibition at 10 µM: -5.28%
[3]
  inhibition at 10 µM: 7.31%
[4]
  inhibition at 10 µM: -12%
[5]
  inhibition at 10 µM: -13.6%
[6]
  inhibition at 10 µM: 9.08%

## C#Cc1ccc2c(c1)C(c1ccccc1Cl)=N[C@H](C)c1c(C(=O)N(C)CC)ncn1-2 [Compound 29]
[1]
  inhibition at 10 µM: 30%
[2]
  inhibition at 10 µM: 4.97%
[3]
  inhibition at 10 µM: 13%
[4]
  inhibition at 10 µM: 4.95%
[5]
  inhibition at 10 µM: -17.5%
[6]
  inhibition at 10 µM: 6.78%

## CCc1noc(-c2ncn3c2CN=C(c2ccccc2F)c2cc(C4CC4)ccc2-3)n1 [Compound 44, 5-(8-Cyclopropyl-6-(2′-fluorophenyl)-4H-benzo[f]imidazo[1,5-a][1,4]diazepin-3-yl)-3-ethyl-1,2,4-oxadiazole]
[1]
  inhibition at 10 µM: 18.5%
[2]
  inhibition at 10 µM: 21.4%
[3]
  inhibition at 10 µM: 16.1%
[4]
  inhibition at 10 µM: 9.28%
[5]
  inhibition at 10 µM: -14.1%
[6]
  inhibition at 10 µM: 11.8%

## CCc1noc(-c2ncn3c2[C@@H](C)N=C(c2ccccc2F)c2cc(-c4ccccc4)ccc2-3)n1 [Compound 35, (R)-3-Ethyl-5-(6-(2′-fluorophenyl)-4-methyl-8-phenyl-4H-benzo[f]imidazo[1,5-a][1,4]diazepin-3-yl)-1,2,4-oxadiazole]
[1]
  inhibition at 10 µM: 13.8%
[2]
  inhibition at 10 µM: 20.8%
[3]
  inhibition at 10 µM: 16.2%
[4]
  inhibition at 10 µM: -1.63%
[5]
  inhibition at 10 µM: -7.39%
[6]
  inhibition at 10 µM: 4.49%

## C[C@H]1N=C(c2ccccc2F)c2cc(Cl)ccc2-n2cnc(-c3nc(C4CC4)no3)c21 [Compound 38, (R)-5-(8-Chloro-6-(2′-fluorophenyl)-4-methyl-4H-benzo[f]imidazo[1,5-a][1,4]diazepin-3-yl)-3-cyclopropyl-1,2,4-oxadiazole]
[1]
  inhibition at 10 µM: 10%
[2]
  inhibition at 10 µM: 1.65%
[3]
  inhibition at 10 µM: -0.07%
[4]
  inhibition at 10 µM: -0.23%
[5]
  inhibition at 10 µM: -5.18%
[6]
  inhibition at 10 µM: 6.92%
